# Patent EP0231671B1, “Gonatriene derivatives and process for preparing them” (MITSUBISHI KASEI CORPORATION, priority 1985, dated 1987)
# Tested on: female rats
# Assay: Anti-gonadotropic activity: ovary weight after 14 days of oral administration, test group compared with control group
# Format: in vivo
# Design: key: -: no effective; +: effective; ++: very effective
# Conditions: suspended in 10 % ethanol-containing cotton seed oil, ovary weight vs control group
# Description: Each compound obtained in Examples and suspended in a 10 % ethanol-containing cotton seed oil was orally administrated to female rats in a dose of 0.1, 1 or 10 mg/kg for 14 days. While, for the control group, only the cotton seed oil was orally administrated for the same period.
# After the completion of the administration, the ovary of each rat was weighted. From the comparison of the weight in the test group with that in the control group, the anti-gonadotropic activity of the gonatriene compound of this invention was evaluated.
Compound,anti-gonadotropic activity (0.1 mg/kg for 14 days),anti-gonadotropic activity (1 mg/kg for 14 days),anti-gonadotropic activity (10 mg/kg for 14 days)
"CC[C@]12C=CC3=C4CCC(=O)C=C4CC[C@H]3[C@@H]1CC[C@@]2(O)CC#N [Example 3, 17α-cyanomethyl-17β-hydroxy-13β-ethyl-gona-4,9,11-triene-3-one]",-,+,++
"CC[C@]12C=CC3=C4CCC(=O)C=C4CC[C@H]3[C@@H]1CC[C@@]2(O)CSC#N [Example 9, 17α-thiocyanatemethyl-17β-hydroxy-13βethyl-gona-4,9,11-triene-3-one]",,++,++
"CC[C@]12C=CC3=C4CCC(=O)C=C4CC[C@H]3[C@@H]1CC[C@@]2(O)COC [Example 6, 17α-methoxymethyl-17β-hydroxy-13β-ethyl-gona-4,9,11-triene-3-one]",,,++
"C[C@]12C=CC3=C4CCC(=O)C=C4CC[C@H]3[C@@H]1CC[C@@]2(O)CCl [Example 1, 17α-chloromethyl-17β-hydroxy-13β-methyl-gona-4.9.11-triene-3-one]",-,,++
"CC[C@]12C=CC3=C4CCC(=O)C=C4CC[C@H]3[C@@H]1CC[C@@]2(O)CCl [Example 4, 17α-chloromethyl-17β-hydroxy-13β-ethyl-gona-4,9,11-triene-3-one]",-,+,++
"CC[C@]12C=CC3=C4CCC(=O)C=C4CC[C@H]3[C@@H]1CC[C@@]2(O)CSC [Example 7, 17α-methylthiomethyl-17β-hydroxy-13β-ethyl-aona-4.9.11-triene-3-one]",-,,++
"C[C@]12C=CC3=C4CCC(=O)C=C4CC[C@H]3[C@@H]1CC[C@@]2(O)CC#N [Example 2, 17α-cyanomethyl-17β-hydroxy-13β-methyl-gona-4,9,11-triene-3-one]",-,+,++
